Assay results published in PubChem BioAssay (NCI).
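GI50 = concentration required for 50% inhibition of growth. Definition used: TGI = concentration required for complete inhibition of growth.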

What was measured:
Test in all cases: inhibition of tumour cell growth, NCI panel, 384-well format
UO-31 renal = tested on: UO-31 renal
U251 glioblastoma = tested on: U251 glioblastoma
SK-OV-3 ovarian = tested on: SK-OV-3 ovarian
MOLT-4 leukemia = tested on: MOLT-4 leukemia
A498 renal = tested on: A498 renal
HCT-15 colon = tested on: HCT-15 colon
BT-549 breast = tested on: BT-549 breast
COLO 205 colon = tested on: COLO 205 colon
A549 NSCLC = tested on: A549 NSCLC
PC-3 prostate = tested on: PC-3 prostate
SK-MEL-2 melanoma = tested on: SK-MEL-2 melanoma
OVCAR-3 ovarian = tested on: OVCAR-3 ovarian
HOP-62 NSCLC = tested on: HOP-62 NSCLC
SK-MEL-5 melanoma = tested on: SK-MEL-5 melanoma
OVCAR-5 ovarian = tested on: OVCAR-5 ovarian
NCI-H522 lung = tested on: NCI-H522 lung
LOX IMVI melanoma = tested on: LOX IMVI melanoma
T-47D breast = tested on: T-47D breast
DU-145 prostate = tested on: DU-145 prostate
SNB-75 CNS = tested on: SNB-75 CNS
OVCAR-4 ovarian = tested on: OVCAR-4 ovarian
MDA-MB-435 melanoma = tested on: MDA-MB-435 melanoma
EKVX NSCLC = tested on: EKVX NSCLC
CCRF-CEM leukemia = tested on: CCRF-CEM leukemia
SNB-19 CNS = tested on: SNB-19 CNS
MDA-MB-231 breast = tested on: MDA-MB-231 breast
SR leukemia = tested on: SR leukemia
TK-10 renal = tested on: TK-10 renal
HCC-2998 colon = tested on: HCC-2998 colon
OVCAR-8 ovarian = tested on: OVCAR-8 ovarian
M14 melanoma = tested on: M14 melanoma
NCI-H226 lung = tested on: NCI-H226 lung
CAKI-1 renal = tested on: CAKI-1 renal
RPMI-8226 leukemia = tested on: RPMI-8226 leukemia
SF-295 CNS = tested on: SF-295 CNS
SW-620 colon = tested on: SW-620 colon
NCI-H322M lung = tested on: NCI-H322M lung
HT29 colon = tested on: HT29 colon
NCI-H23 lung = tested on: NCI-H23 lung
KM12 colon = tested on: KM12 colon
UACC-257 melanoma = tested on: UACC-257 melanoma
IGROV1 ovarian = tested on: IGROV1 ovarian
HCT-116 colon = tested on: HCT-116 colon
786-0 renal = tested on: 786-0 renal
MALME-3M melanoma = tested on: MALME-3M melanoma
ACHN renal = tested on: ACHN renal
SF-268 CNS = tested on: SF-268 CNS
SK-MEL-28 melanoma = tested on: SK-MEL-28 melanoma
NCI-H460 NSCLC = tested on: NCI-H460 NSCLC
UACC-62 melanoma = tested on: UACC-62 melanoma
HOP-92 NSCLC = tested on: HOP-92 NSCLC
HL-60(TB) leukemia = tested on: HL-60(TB) leukemia
SF-539 CNS = tested on: SF-539 CNS
MCF7 breast = tested on: MCF7 breast
SN12C renal = tested on: SN12C renal
K-562 leukemia = tested on: K-562 leukemia
NCI/ADR-RES ovarian = tested on: NCI/ADR-RES ovarian
MDA-MB-468 breast = tested on: MDA-MB-468 breast
RXF 393 renal = tested on: RXF 393 renal

CC(C)(C[C@H]1CN(S(=O)(=O)c2cccc(C(F)(F)F)c2)c2cc(-c3cc(F)cc(OC(F)F)c3)ccc2O1)C(=O)O
GI50 (UO-31 renal): 10.5 µM | TGI (UO-31 renal): 22.3 µM | GI50 (U251 glioblastoma): 7.65 µM | TGI (U251 glioblastoma): 20.2 µM | GI50 (SK-OV-3 ovarian): 9.09 µM | TGI (SK-OV-3 ovarian): 21.4 µM | GI50 (MOLT-4 leukemia): 3.11 µM | TGI (MOLT-4 leukemia): 8.3 µM | GI50 (A498 renal): 4.35 µM | TGI (A498 renal): 15.5 µM | GI50 (HCT-15 colon): 4.15 µM | TGI (HCT-15 colon): 14.1 µM | GI50 (BT-549 breast): 2.8 µM | TGI (BT-549 breast): 9.11 µM | GI50 (COLO 205 colon): 5.83 µM | TGI (COLO 205 colon): 15.3 µM | GI50 (A549 NSCLC): 4.28 µM | TGI (A549 NSCLC): 15.5 µM | GI50 (PC-3 prostate): 8.44 µM | TGI (PC-3 prostate): 20.8 µM | GI50 (SK-MEL-2 melanoma): 2.73 µM | TGI (SK-MEL-2 melanoma): 7.34 µM | GI50 (OVCAR-3 ovarian): 2.46 µM | TGI (OVCAR-3 ovarian): 7.45 µM | GI50 (HOP-62 NSCLC): 4.81 µM | TGI (HOP-62 NSCLC): 16.7 µM | GI50 (SK-MEL-5 melanoma): 3.86 µM | TGI (SK-MEL-5 melanoma): 13.5 µM | GI50 (OVCAR-5 ovarian): 16.3 µM | TGI (OVCAR-5 ovarian): 29.9 µM | GI50 (NCI-H522 lung): 2.66 µM | TGI (NCI-H522 lung): 7.35 µM | GI50 (LOX IMVI melanoma): 12.8 µM | TGI (LOX IMVI melanoma): 25.4 µM | GI50 (T-47D breast): 5.89 µM | TGI (T-47D breast): 18.9 µM | GI50 (DU-145 prostate): 10.1 µM | TGI (DU-145 prostate): 21.9 µM | GI50 (SNB-75 CNS): 17.4 µM | TGI (SNB-75 CNS): 31.2 µM | GI50 (OVCAR-4 ovarian): 9.12 µM | TGI (OVCAR-4 ovarian): 21.5 µM | GI50 (MDA-MB-435 melanoma): 2.04 µM | TGI (MDA-MB-435 melanoma): 4.48 µM | GI50 (EKVX NSCLC): 10.7 µM | TGI (EKVX NSCLC): 22.8 µM | GI50 (CCRF-CEM leukemia): 6.52 µM | TGI (CCRF-CEM leukemia): 18.4 µM | GI50 (SNB-19 CNS): 8.54 µM | TGI (SNB-19 CNS): 20.5 µM | GI50 (MDA-MB-231 breast): 8.82 µM | TGI (MDA-MB-231 breast): 21.4 µM | GI50 (SR leukemia): 1.51 µM | TGI (SR leukemia): 2.9 µM | GI50 (TK-10 renal): 10.6 µM | TGI (TK-10 renal): 23.1 µM | GI50 (HCC-2998 colon): 6.63 µM | TGI (HCC-2998 colon): 20.7 µM | GI50 (OVCAR-8 ovarian): 9.79 µM | TGI (OVCAR-8 ovarian): 22.1 µM | GI50 (M14 melanoma): 4.53 µM | TGI (M14 melanoma): 15.3 µM | GI50 (NCI-H226 lung): 8.64 µM | TGI (NCI-H226 lung): 22 µM | GI50 (CAKI-1 renal): 6.92 µM | TGI (CAKI-1 renal): 19 µM | GI50 (RPMI-8226 leukemia): 2.78 µM | TGI (RPMI-8226 leukemia): 6.15 µM | GI50 (SF-295 CNS): 3.02 µM | TGI (SF-295 CNS): 10.3 µM | GI50 (SW-620 colon): 2.92 µM | TGI (SW-620 colon): 7.59 µM | GI50 (NCI-H322M lung): 12.6 µM | TGI (NCI-H322M lung): 25.6 µM | GI50 (HT29 colon): 3.97 µM | TGI (HT29 colon): 13.6 µM | GI50 (NCI-H23 lung): 3.38 µM | TGI (NCI-H23 lung): 10.7 µM | GI50 (KM12 colon): 4.06 µM | TGI (KM12 colon): 14.4 µM | GI50 (UACC-257 melanoma): 8.84 µM | TGI (UACC-257 melanoma): 23.2 µM | GI50 (IGROV1 ovarian): 7.94 µM | TGI (IGROV1 ovarian): 20.9 µM | GI50 (HCT-116 colon): 7.93 µM | TGI (HCT-116 colon): 20.5 µM | GI50 ([…]-0 renal): 9.51 µM | TGI (786-0 renal): 22.8 µM | GI50 (MALME-3M melanoma): 11.5 µM | TGI (MALME-3M melanoma): 24.5 µM | GI50 (ACHN renal): 13.4 µM | TGI (ACHN renal): 26.7 µM | GI50 (SF-268 CNS): 9.85 µM | TGI (SF-268 CNS): 22.6 µM | GI50 (SK-MEL-28 melanoma): 7.37 µM | TGI (SK-MEL-28 melanoma): 20.1 µM | GI50 (NCI-H460 NSCLC): 4.04 µM | TGI (NCI-H460 NSCLC): 13 µM | GI50 (UACC-62 melanoma): 3.84 µM | TGI (UACC-62 melanoma): 13.6 µM | GI50 (HOP-92 NSCLC): 7.09 µM | TGI (HOP-92 NSCLC): 20 µM | GI50 (HL-60(TB) leukemia): 2.74 µM | TGI (HL-60(TB) leukemia): 4.91 µM | GI50 (SF-539 CNS): 6 µM | TGI (SF-539 CNS): 18.4 µM | GI50 (MCF7 breast): 4.82 µM | TGI (MCF7 breast): 17.2 µM | GI50 (SN12C renal): 10.3 µM | TGI (SN12C renal): 22.4 µM | GI50 (K-562 leukemia): 3.18 µM | TGI (K-562 leukemia): 12.1 µM | GI50 (NCI/ADR-RES ovarian): 2.52 µM | TGI (NCI/ADR-RES ovarian): 7.17 µM | GI50 (MDA-MB-468 breast): 2.66 µM | TGI (MDA-MB-468 breast): 7.31 µM | GI50 (RXF 393 renal): 4.02 µM | TGI (RXF 393 renal): 11.1 µM
